Where only a bound is given, the exact number is not on record here.

We go through 20 compounds from patent publication US8268827B2, “Pyridazinone derivatives as PARP inhibitors” (Istituto di Ricerche di Biologia Molecolare P. Angeletti …, priority 2007, dated 2012).

This test concerns BRCA-1 silenced HeLa cells (HeLa shBRCA1-GFP). Put plainly: Proliferation assay in BRCA-1 silenced HeLa cells. Particulars: Homo sapiens; BRCA1 silenced HeLa cells, 168 hours; read-out: CC50 in the BRCA1 silenced HeLa cells. Format: cell-based. In a few lines: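 Antiproliferative effect was read by Celltiter Blue fluorescence after 168 h of compound treatment at 37° C., 5% CO2. Cells were matched HeLa pairs, BRCA1-shRNA (>80% silenced, GFP) versus non-shRNA vector control, in DMEM with 10% FCS.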
In the case of `CCC1CN(C(=O)c2cc(Cc3n[nH]c(=O)c(C)c3C)ccc2F)CC(=O)N1C1CCCC1` (centres unmarked) [Example 186, 6-{3-[(4-Cyclopentyl-3-ethyl-5-oxopiperazin-1-yl)carbonyl]-4-fluorobenzyl}-4,5-dimethylpyridazin-3(2H)-one], the CC50 was below 5000 nM.

For the compound `Cc1c(Cc2ccc(F)c(C(=O)N3CC(=O)N(c4ccc(Cl)c(F)c4)[C@H](C)C3)c2)n[nH]c(=O)c1C` [Example 187, 6-(3-{[(3R)-4-(4-Chloro-3-fluorophenyl)-3-methyl-5-oxopiperazin-1-yl]carbonyl}-4-fluorobenzyl)-4,5-dimethylpyridazin-3(2H)-one], the CC50 was below 50 nM.

For the compound `Cc1c(Cc2ccc(F)c(C(=O)N3CC(=O)N(C4CC(F)(F)C4)C(C)C3)c2)n[nH]c(=O)c1C` (centres unmarked) [Example 188, 6-(3-{[4-(3,3-Difluorocyclobutyl)-3-methyl-5-oxopiperazin-1-yl]carbonyl}-4-fluorobenzyl)-4,5-dimethylpyridazin-3(2H)-one], the CC50 is below 50 nM.

Consider `Cc1c(Cc2ccc(F)c(C(=O)N3CC(=O)N(c4ccc(C#N)cc4)[C@H](C)C3)c2)n[nH]c(=O)c1C` [Example 189, 4-((2R)-4-{5-[(4,5-Dimethyl-6-oxo-1,6-dihydropyridazin-3-yl)methyl]-2-fluorobenzoyl}-2-methyl-6-oxopiperazin-1-yl)benzonitrile], for which the half-maximal cytotoxic concentration (CC50) was below 50 nM.

Consider `Cc1c(Cc2ccc(F)c(C(=O)N3CC(=O)N(c4ccc(C#N)c(F)c4)[C@H](C)C3)c2)n[nH]c(=O)c1C` [Example 191, 4-((2R)-4-{5-[(4,5-Dimethyl-6-oxo-1,6-dihydropyridazin-3-yl)methyl]-2-fluorobenzoyl}-2-methyl-6-oxopiperazin-1-yl)-2-fluorobenzonitrile], for which the CC50 is below 50 nM.

Consider `Cc1c(Cc2ccc(F)c(C(=O)N3CCN([C@@H](C)C(F)(F)F)C(=O)C3)c2)n[nH]c(=O)c1C` [Example 192, 6-[4-Fluoro-3-({3-oxo-4-[(1S)-2,2,2-trifluoro-1-methylethyl]piperazin-1-yl}carbonyl)benzyl]-4,5-dimethylpyridazin-3(2H)-one], for which the CC50 was 50 to 500 nM.

Turning to `Cc1c(Cc2ccc(F)c(C(=O)N3CC(=O)N(c4cc(F)cc(F)c4)[C@H](C)C3)c2)n[nH]c(=O)c1C` [Example 193, 6-(3-{[(3R)-4-(3,5-Difluorophenyl)-3-methyl-5-oxopiperazin-1-yl]carbonyl}-4-fluorobenzyl)-4,5-dimethylpyridazin-3(2H)-one], the CC50 was below 50 nM.

On to `Cc1c(Cc2ccc(F)c(C(=O)N3CC(=O)N(c4ccc(Cl)cc4)[C@H](C)C3)c2)n[nH]c(=O)c1C` [Example 194, 6-(3-{[(3R)-4-(4-Chlorophenyl)-3-methyl-5-oxopiperazin-1-yl]carbonyl}-4-fluorobenzyl)-4,5-dimethylpyridazin-3(2H)-one], for which the CC50 was below 50 nM.

In the case of `Cc1c(Cc2ccc(F)c(C(=O)N3CC(=O)N(c4cccs4)[C@H](C)C3)c2)n[nH]c(=O)c1C` [Example 195, 6-(4-Fluoro-3-{[(3R)-3-methyl-5-oxo-4-(2-thienyl)piperazin-1-yl]carbonyl}benzyl)-4,5-dimethylpyridazin-3(2H)-one], the CC50 is below 50 nM.

As to `Cc1c(Cc2ccc(F)c(C(=O)N3CC(=O)N(c4ccc(Cl)cc4F)[C@H](C)C3)c2)n[nH]c(=O)c1C` [Example 196, 6-(3-{[(3R)-4-(4-Chloro-2-fluorophenyl)-3-methyl-5-oxopiperazin-1-yl]carbonyl}-4-fluorobenzyl)-4,5-dimethylpyridazin-3(2H)-one], the CC50 was below 50 nM.

Consider `Cc1c(Cc2ccc(F)c(C(=O)N3CC(=O)N(c4ccc(F)c(C#N)c4)[C@H](C)C3)c2)n[nH]c(=O)c1C` [Example 197, 5-((2R)-4-{5-[(4,5-Dimethyl-6-oxo-1,6-dihydropyridazin-3-yl)methyl]-2-fluorobenzoyl}-2-methyl-6-oxopiperazin-1-yl)-2-fluorobenzonitrile], for which the CC50 was below 50 nM.

Regarding `Cc1c(Cc2ccc(F)c(C(=O)N3CC(=O)N(c4cc(F)cc(Cl)c4)[C@H](C)C3)c2)n[nH]c(=O)c1C` [Example 198, 6-(3-{[(3R)-4-(3-Chloro-5-fluorophenyl)-3-methyl-5-oxopiperazin-1-yl]carbonyl}-4-fluorobenzyl)-4,5-dimethylpyridazin-3(2H)-one], the CC50 is below 50 nM.

As to `Cc1c(Cc2ccc(F)c(C(=O)N3CC(=O)N(c4ccc(F)c(Cl)c4)[C@H](C)C3)c2)n[nH]c(=O)c1C` [Example 199, 6-(3-{[(3R)-4-(3-Chloro-4-fluorophenyl)-3-methyl-5-oxopiperazin-1-yl]carbonyl}-4-fluorobenzyl)-4,5-dimethylpyridazin-3(2H)-one], the CC50 is below 50 nM.

As to `Cc1c(Cc2ccc(F)c(C(=O)N3CCN([C@H](C)C(F)(F)F)C(=O)C3)c2)n[nH]c(=O)c1C` [Example 200, 6-[4-Fluoro-3-({3-oxo-4-[(1R)-2,2,2-trifluoro-1-methylethyl]piperazin-1-yl}carbonyl)benzyl]-4,5-dimethylpyridazin-3(2H)-one], the CC50 is below 50 nM.

Consider `Cc1c(Cc2ccc(F)c(C(=O)N3CC(=O)N(c4ccc(C#N)cc4F)[C@H](C)C3)c2)n[nH]c(=O)c1C` [Example 201, 4-((2R)-4-{5-[(4,5-Dimethyl-6-oxo-1,6-dihydropyridazin-3-yl)methyl]-2-fluorobenzoyl}-2-methyl-6-oxopiperazin-1-yl)-3-fluorobenzonitrile], for which the CC50 was below 50 nM.

For the compound `Cc1c(Cc2ccc(F)c(C(=O)N3CC(=O)N(c4cc(F)cc(C#N)c4)[C@H](C)C3)c2)n[nH]c(=O)c1C` [Example 202, 3-((2R)-4-{5-[(4,5-Dimethyl-6-oxo-1,6-dihydropyridazin-3-yl)methyl]-2-fluorobenzoyl}-2-methyl-6-oxopiperazin-1-yl)-5-fluorobenzonitrile], the CC50 is below 50 nM.

For the compound `Cc1c(Cc2ccc(F)c(C(=O)N3CC(=O)N(c4ccc(F)c(F)c4)[C@H](C)C3)c2)n[nH]c(=O)c1C` [Example 203, 6-(3-{[(3R)-4-(3,4-Difluorophenyl)-3-methyl-5-oxopiperazin-1-yl]carbonyl}-4-fluorobenzyl)-4,5-dimethylpyridazin-3(2H)-one], the CC50 was below 50 nM.

For `Cc1c(Cc2ccc(F)c(C(=O)N3CCN(C(C)C4CC4)C(=O)C3)c2)n[nH]c(=O)c1C` (centres unmarked) [Example 204, 6-(3-{[4-(1-Cyclopropylethyl)-3-oxopiperazin-1-yl]carbonyl}-4-fluorobenzyl)-4,5-dimethylpyridazin-3(2H)-one], the CC50 lay within 50 to 500 nM.

For the compound `Cc1c(Cc2ccc(F)c(C(=O)N3CC(=O)N(c4cc(Cl)ccc4F)[C@H](C)C3)c2)n[nH]c(=O)c1C` [Example 205, 6-(3-{[(3R)-4-(5-Chloro-2-fluorophenyl)-3-methyl-5-oxopiperazin-1-yl]carbonyl}-4-fluorobenzyl)-4,5-dimethylpyridazin-3(2H)-one], the CC50 is below 50 nM.

With `Cc1c(Cc2ccc(F)c(C(=O)N3CC(=O)N(c4cccc(Cl)c4F)[C@H](C)C3)c2)n[nH]c(=O)c1C` [Example 206, 6-(3-{[(3R)-4-(3-Chloro-2-fluorophenyl)-3-methyl-5-oxopiperazin-1-yl]carbonyl}-4-fluorobenzyl)-4,5-dimethylpyridazin-3(2H)-one], the CC50 is below 50 nM.
